{"source": "patent US11952611B2", "about": "“Methods and systems for detection of antibiotic resistance” (Laboratory Corporation of America Holdings, priority 2017, dated 2024)", "key": {"12600 MSSA": {"tested_on": "12600 MSSA", "test": "Effect of duration of antibiotic and phage exposure on MSSA signal (Table 5)", "format": "cell-based, Staphylococcus aureus", "procedure": "Bacterial strains were serially diluted and transferred to a 96-well plate at 135 μL per well. 15 μL of cefoxitin was added to the wells to reach a final concentration of 1.8 μg/mL, 3.6 μg/mL, or 5.4 μg/mL. The plate was then sealed and incubated at 37° C. for 2 hours or 3 hours. 10 μL of recombinant phage (1.6×10^8 pfu/mL) was added to each well. The plate was then re-sealed and incubated at 37° C. for an additional 1 or 2 hours. A master mix was made containing 15 μL 5× lysis buffer, 50 μL luciferase assay buffer, and 1 μL luciferase substrate per well. 65 μL of master mix was added to each well. Luminescence from the reactions was read on a GLOMAX® Navigator and relative luminal units (RLU) for each reaction were plotted and analyzed. RLU values three times greater than an established background RLU level for LB (>750 RLU) were considered positive. The results, shown in Table 5, indicate that the number of MSSA strains producing false-positives at the previously established cut-off of 1.8 μg/mL cefoxitin were reduced with a 3-hour antibiotic/1-hour phage protocol when compared to a 2-hour antibiotic/2-hour phage protocol. A false positive occurred at 541 CFU with the 2-hour antibiotic/2-hour phage protocol. Whereas, the 3-hour antibiotic/1-hour phage protocol produced false positives at 4331 CFU. Positive results are in bold. In Table 5, CFU values (541 CFU and 305 CFU) were experimentally validated by direct plating."}, "12600 - MSSA": {"tested_on": "12600 - MSSA", "test": "Table 6, MSSA alone", "format": "cell-based, Staphylococcus aureus", "procedure": "Bacterial strains were serially diluted and transferred to a 96-well plate at 135 μL per well. 15 μL of cefoxitin was added to the wells to reach a final concentration of 1.8 μg/mL. The plate was then sealed and incubated at 37° C. for 2 hours or 3 hours. 10 μL of recombinant phage (1.6×10^8 pfu/mL) was added to each well. The plate was then re-sealed and incubated at 37° C. for an additional 1 or 2 hours. A master mix was made containing 15 μL 5× lysis buffer, 50 μL luciferase assay buffer, and 1 μL luciferase substrate per well. 65 μL of master mix was added to each well. Luminescence from the reactions was read on a GLOMAX® Navigator and relative luminal units (RLU) for each reaction were plotted and analyzed. RLU values three times greater than an established background RLU level for LB (>750 RLU) were considered positive. The results, shown in Table 6, indicate that samples with MRSA (38 CFU) can be distinguished from samples containing MSSA (up to 5088 CFU) using a 3-hour antibiotic/1-hour phage incubation protocol. Positive results are in bold. In Table 6, CFU values (318 CFU and 156 CFU) were experimentally validated by direct plating."}, "[1]": {"details": "MSSA detected CFU 10176, MRSA 0"}}, "data": [{"smiles": "CO[C@@]1(NC(=O)Cc2cccs2)C(=O)N2C(C(=O)O)=C(COC(N)=O)CS[C@@H]21", "note": "[Cefoxitin, cefoxitin]", "values": [{"measurement": "Cefoxitin (RLU) - 2 Hour Antibiotic + 2 Hour Phage 1.8 ug/mL", "setting": "12600 MSSA; detected CFU 305", "result": 600, "unit": "RLU"}, {"measurement": "Cefoxitin (RLU) - 2 Hour Antibiotic + 2 Hour Phage 3.6 ug/mL", "setting": "12600 MSSA; detected CFU 305", "result": 225, "unit": "RLU"}, {"measurement": "Cefoxitin (RLU) - 2 Hour Antibiotic + 2 Hour Phage 5.4 ug/mL", "setting": "12600 MSSA; detected CFU 305", "result": 244, "unit": "RLU"}, {"measurement": "Cefoxitin (RLU) - 3 Hour Antibiotic + 1 Hour Phage 1.8 ug/mL", "setting": "12600 MSSA; detected CFU 305", "result": 267, "unit": "RLU"}, {"measurement": "Cefoxitin (RLU) - 3 Hour Antibiotic + 1 Hour Phage 3.6 ug/mL", "setting": "12600 MSSA; detected CFU 305", "result": 198, "unit": "RLU"}, {"measurement": "Cefoxitin (RLU) - 3 Hour Antibiotic + 1 Hour Phage 5.4 ug/mL", "setting": "12600 MSSA; detected CFU 305", "result": 184, "unit": "RLU"}, {"measurement": "Cefoxitin (RLU) - 2 Hour Antibiotic + 2 Hour Phage 1.8 ug/mL", "setting": "12600 MSSA; detected CFU 541", "result": 1065, "unit": "RLU"}, {"measurement": "Cefoxitin (RLU) - 2 Hour Antibiotic + 2 Hour Phage 3.6 ug/mL", "setting": "12600 MSSA; detected CFU 541", "result": 224, "unit": "RLU"}, {"measurement": "Cefoxitin (RLU) - 2 Hour Antibiotic + 2 Hour Phage 5.4 ug/mL", "setting": "12600 MSSA; detected CFU 541", "result": 217, "unit": "RLU"}, {"measurement": "Cefoxitin (RLU) - 3 Hour Antibiotic + 1 Hour Phage 1.8 ug/mL", "setting": "12600 MSSA; detected CFU 541", "result": 258, "unit": "RLU"}, {"measurement": "Cefoxitin (RLU) - 3 Hour Antibiotic + 1 Hour Phage 3.6 ug/mL", "setting": "12600 MSSA; detected CFU 541", "result": 215, "unit": "RLU"}, {"measurement": "Cefoxitin (RLU) - 3 Hour Antibiotic + 1 Hour Phage 5.4 ug/mL", "setting": "12600 MSSA; detected CFU 541", "result": 171, "unit": "RLU"}, {"measurement": "Cefoxitin (RLU) - 2 Hour Antibiotic + 2 Hour Phage 1.8 ug/mL", "setting": "12600 MSSA; detected CFU 1083", "result": 1718, "unit": "RLU"}, {"measurement": "Cefoxitin (RLU) - 2 Hour Antibiotic + 2 Hour Phage 3.6 ug/mL", "setting": "12600 MSSA; detected CFU 1083", "result": 395, "unit": "RLU"}, {"measurement": "Cefoxitin (RLU) - 2 Hour Antibiotic + 2 Hour Phage 5.4 ug/mL", "setting": "12600 MSSA; detected CFU 1083", "result": 277, "unit": "RLU"}, {"measurement": "Cefoxitin (RLU) - 3 Hour Antibiotic + 1 Hour Phage 1.8 ug/mL", "setting": "12600 MSSA; detected CFU 1083", "result": 415, "unit": "RLU"}, {"measurement": "Cefoxitin (RLU) - 3 Hour Antibiotic + 1 Hour Phage 3.6 ug/mL", "setting": "12600 MSSA; detected CFU 1083", "result": 201, "unit": "RLU"}, {"measurement": "Cefoxitin (RLU) - 3 Hour Antibiotic + 1 Hour Phage 5.4 ug/mL", "setting": "12600 MSSA; detected CFU 1083", "result": 208, "unit": "RLU"}, {"measurement": "Cefoxitin (RLU) - 2 Hour Antibiotic + 2 Hour Phage 1.8 ug/mL", "setting": "12600 MSSA; detected CFU 2165", "result": 3046, "unit": "RLU"}, {"measurement": "Cefoxitin (RLU) - 2 Hour Antibiotic + 2 Hour Phage 3.6 ug/mL", "setting": "12600 MSSA; detected CFU 2165", "result": 424, "unit": "RLU"}, {"measurement": "Cefoxitin (RLU) - 2 Hour Antibiotic + 2 Hour Phage 5.4 ug/mL", "setting": "12600 MSSA; detected CFU 2165", "result": 331, "unit": "RLU"}, {"measurement": "Cefoxitin (RLU) - 3 Hour Antibiotic + 1 Hour Phage 1.8 ug/mL", "setting": "12600 MSSA; detected CFU 2165", "result": 604, "unit": "RLU"}, {"measurement": "Cefoxitin (RLU) - 3 Hour Antibiotic + 1 Hour Phage 3.6 ug/mL", "setting": "12600 MSSA; detected CFU 2165", "result": 218, "unit": "RLU"}, {"measurement": "Cefoxitin (RLU) - 3 Hour Antibiotic + 1 Hour Phage 5.4 ug/mL", "setting": "12600 MSSA; detected CFU 2165", "result": 202, "unit": "RLU"}, {"measurement": "Cefoxitin (RLU) - 2 Hour Antibiotic + 2 Hour Phage 1.8 ug/mL", "setting": "12600 MSSA; detected CFU 4331", "result": 5703, "unit": "RLU"}, {"measurement": "Cefoxitin (RLU) - 2 Hour Antibiotic + 2 Hour Phage 3.6 ug/mL", "setting": "12600 MSSA; detected CFU 4331", "result": 563, "unit": "RLU"}, {"measurement": "Cefoxitin (RLU) - 2 Hour Antibiotic + 2 Hour Phage 5.4 ug/mL", "setting": "12600 MSSA; detected CFU 4331", "result": 487, "unit": "RLU"}, {"measurement": "Cefoxitin (RLU) - 3 Hour Antibiotic + 1 Hour Phage 1.8 ug/mL", "setting": "12600 MSSA; detected CFU 4331", "result": 933, "unit": "RLU"}, {"measurement": "Cefoxitin (RLU) - 3 Hour Antibiotic + 1 Hour Phage 3.6 ug/mL", "setting": "12600 MSSA; detected CFU 4331", "result": 196, "unit": "RLU"}, {"measurement": "Cefoxitin (RLU) - 3 Hour Antibiotic + 1 Hour Phage 5.4 ug/mL", "setting": "12600 MSSA; detected CFU 4331", "result": 194, "unit": "RLU"}, {"measurement": "Cefoxitin (RLU) - 2 Hour Antibiotic + 2 Hour Phage 1.8 ug/mL", "setting": "12600 MSSA; detected CFU 8662", "result": 11570, "unit": "RLU"}, {"measurement": "Cefoxitin (RLU) - 2 Hour Antibiotic + 2 Hour Phage 3.6 ug/mL", "setting": "12600 MSSA; detected CFU 8662", "result": 1224, "unit": "RLU"}, {"measurement": "Cefoxitin (RLU) - 2 Hour Antibiotic + 2 Hour Phage 5.4 ug/mL", "setting": "12600 MSSA; detected CFU 8662", "result": 979, "unit": "RLU"}, {"measurement": "Cefoxitin (RLU) - 3 Hour Antibiotic + 1 Hour Phage 1.8 ug/mL", "setting": "12600 MSSA; detected CFU 8662", "result": 1563, "unit": "RLU"}, {"measurement": "Cefoxitin (RLU) - 3 Hour Antibiotic + 1 Hour Phage 3.6 ug/mL", "setting": "12600 MSSA; detected CFU 8662", "result": 247, "unit": "RLU"}, {"measurement": "Cefoxitin (RLU) - 3 Hour Antibiotic + 1 Hour Phage 5.4 ug/mL", "setting": "12600 MSSA; detected CFU 8662", "result": 224, "unit": "RLU"}, {"measurement": "Cefoxitin (RLU) - 2 Hour Antibiotic + 2 Hour Phage 1.8 ug/mL", "setting": "12600 MSSA; detected CFU 17323", "result": 22890, "unit": "RLU"}, {"measurement": "Cefoxitin (RLU) - 2 Hour Antibiotic + 2 Hour Phage 3.6 ug/mL", "setting": "12600 MSSA; detected CFU 17323", "result": 2071, "unit": "RLU"}, {"measurement": "Cefoxitin (RLU) - 2 Hour Antibiotic + 2 Hour Phage 5.4 ug/mL", "setting": "12600 MSSA; detected CFU 17323", "result": 1493, "unit": "RLU"}, {"measurement": "Cefoxitin (RLU) - 3 Hour Antibiotic + 1 Hour Phage 1.8 ug/mL", "setting": "12600 MSSA; detected CFU 17323", "result": 2695, "unit": "RLU"}, {"measurement": "Cefoxitin (RLU) - 3 Hour Antibiotic + 1 Hour Phage 3.6 ug/mL", "setting": "12600 MSSA; detected CFU 17323", "result": 255, "unit": "RLU"}, {"measurement": "Cefoxitin (RLU) - 3 Hour Antibiotic + 1 Hour Phage 5.4 ug/mL", "setting": "12600 MSSA; detected CFU 17323", "result": 246, "unit": "RLU"}, {"measurement": "2 HR AB + 2 HR Phage 1.8 ug/mL", "setting": "12600 - MSSA; MSSA detected CFU 156, MRSA 0", "result": 423, "unit": "RLU"}, {"measurement": "3 HR AB + 1 HR Phage 1.8 ug/mL", "setting": "12600 - MSSA; MSSA detected CFU 156, MRSA 0", "result": 196, "unit": "RLU"}, {"measurement": "2 HR AB + 2 HR Phage 1.8 ug/mL", "setting": "12600 - MSSA; MSSA detected CFU 318, MRSA 0", "result": 608, "unit": "RLU"}, {"measurement": "3 HR AB + 1 HR Phage 1.8 ug/mL", "setting": "12600 - MSSA; MSSA detected CFU 318, MRSA 0", "result": 231, "unit": "RLU"}, {"measurement": "2 HR AB + 2 HR Phage 1.8 ug/mL", "setting": "12600 - MSSA; MSSA detected CFU 636, MRSA 0", "result": 956, "unit": "RLU"}, {"measurement": "3 HR AB + 1 HR Phage 1.8 ug/mL", "setting": "12600 - MSSA; MSSA detected CFU 636, MRSA 0", "result": 275, "unit": "RLU"}, {"measurement": "2 HR AB + 2 HR Phage 1.8 ug/mL", "setting": "12600 - MSSA; MSSA detected CFU 1272, MRSA 0", "result": 1685, "unit": "RLU"}, {"measurement": "3 HR AB + 1 HR Phage 1.8 ug/mL", "setting": "12600 - MSSA; MSSA detected CFU 1272, MRSA 0", "result": 321, "unit": "RLU"}, {"measurement": "2 HR AB + 2 HR Phage 1.8 ug/mL", "setting": "12600 - MSSA; MSSA detected CFU 2544, MRSA 0", "result": 4715, "unit": "RLU"}, {"measurement": "3 HR AB + 1 HR Phage 1.8 ug/mL", "setting": "12600 - MSSA; MSSA detected CFU 2544, MRSA 0", "result": 621, "unit": "RLU"}, {"measurement": "2 HR AB + 2 HR Phage 1.8 ug/mL", "setting": "12600 - MSSA; MSSA detected CFU 5088, MRSA 0", "result": 8583, "unit": "RLU"}, {"measurement": "3 HR AB + 1 HR Phage 1.8 ug/mL", "setting": "12600 - MSSA; MSSA detected CFU 5088, MRSA 0", "result": 901, "unit": "RLU"}, {"measurement": "2 HR AB + 2 HR Phage 1.8 ug/mL", "setting": "12600 - MSSA; [1]", "result": 16340, "unit": "RLU"}, {"measurement": "3 HR AB + 1 HR Phage 1.8 ug/mL", "setting": "12600 - MSSA; [1]", "result": 1098, "unit": "RLU"}]}]}
